This note sets out measurements from ChEMBL document CHEMBL5674860, “Optimized Dual-Glo Assay to identify co-culture-induced drug vulnerabilities in 3D CRC models” (2024).

Common to all, as to format: functional, Homo sapiens
Parameters in all cases: dose or concentration left out as unconfirmed

In assay [1] the test system is Colon cancer organoid. In words: Optimized Dual-Glo assay to identify co-culture induced drug vulnerabilities using donated chemical probes and chemogenomics kinase set in O06 CRC organoid and F06 CAF mono and co-culture. […] Cell viability is reported both mono and co-culture models.
Assay [2] deals with Colon cancer organoid. In words: Optimized Dual-Glo assay to identify co-culture induced drug vulnerabilities using donated chemical probes and chemogenomics kinase set in O14 CRC organoid and F14 CAF mono and co-culture. […] Cell viability is reported both mono and co-culture models.
Assay [3] relates to Colon cancer organoid. The assay is described as follows: Optimized Dual-Glo assay to identify co-culture induced drug vulnerabilities using donated chemical probes and chemogenomics kinase set in O20 CRC organoid and F20 CAF mono and co-culture. […] Cell viability is reported both mono and co-culture models.
The mark [4] stands for this setting: Culture type Co-Culture, Transduced with Lucferase2-P2A-EGFP lentivirus.
Setting [5] is: Culture type Co-Culture, Transduced with Renilla-dsRed lentivirus.
[6] abbreviates: Culture type Mono-Culture, Transduced with Lucferase2-P2A-EGFP lentivirus.
Where [7] appears, read: Culture type Mono-Culture, Transduced with Renilla-dsRed lentivirus.

Turning to `COc1ccc(Cn2ccc3ccc(C(=O)NO)cc32)cc1`, the “Cell Viability” value came out at 111.578% with Colon cancer organoid [1] (setting [4]); 129.424% with Colon cancer organoid [1] (setting [5]); 126.919% in the assay with Colon cancer organoid [1] (setting [6]); 118.855% in the assay with Colon cancer organoid [1] (setting [7]); 71.3405% in the assay with Colon cancer organoid [2] (setting [4]); 118.85% in the assay with Colon cancer organoid [2] (setting [5]). Further, the “Cell Viability” value in the assay on Colon cancer organoid [2] (setting [6]) was determined as 119.497%; with Colon cancer organoid [2] (setting [7]) it was 102.466%; in the assay on Colon cancer organoid [3] (setting [4]) it was 176.611%; in the assay with Colon cancer organoid [3] (setting [5]) it was 111.53%; with Colon cancer organoid [3] (setting [6]) it was 111.23%; in the assay on Colon cancer organoid [3] (setting [7]), 102.771%.

Consider `CN1C[C@H](Nc2cnn(C)c(=O)c2Br)C[C@H](c2ccccc2)C1`, for which the “Cell Viability” value is 52.3497% in the assay on Colon cancer organoid [1] (setting [4]); 181.327% with Colon cancer organoid [1] (setting [5]); 101.698% with Colon cancer organoid [1] (setting [6]); 109.538% with Colon cancer organoid [1] (setting [7]); 72.8555% in the assay with Colon cancer organoid [2] (setting [4]); 143.992% with Colon cancer organoid [2] (setting [5]). For the same compound, the “Cell Viability” value amounted to 98.7271% in the assay on Colon cancer organoid [2] (setting [6]); 111.977% in the assay with Colon cancer organoid [2] (setting [7]); 159.897% in the assay on Colon cancer organoid [3] (setting [4]); 106.068% in the assay on Colon cancer organoid [3] (setting [5]); 104.311% with Colon cancer organoid [3] (setting [6]); 120.493% in the assay on Colon cancer organoid [3] (setting [7]).

As to `Cc1c(Nc2ccc(S(=O)(=O)N3CCN(C)CC3)cc2F)nc2ccc(Nc3cnn(C4CC4)c3)cn2c1=O`, the “Cell Viability” value in the assay with Colon cancer organoid [1] (setting [4]) is given as 81.8172%; in the assay on Colon cancer organoid [1] (setting [5]), 120.859%; with Colon cancer organoid [1] (setting [6]) it was 129.193%; in the assay on Colon cancer organoid [1] (setting [7]), 116.74%; in the assay with Colon cancer organoid [2] (setting [4]) it was 111.5%; with Colon cancer organoid [2] (setting [5]) it was 108.059%. Besides, the “Cell Viability” value in the assay with Colon cancer organoid [2] (setting [6]) worked out at 92.684%; in the assay with Colon cancer organoid [2] (setting [7]), 101.792%; in the assay on Colon cancer organoid [3] (setting [4]), 117.664%; in the assay on Colon cancer organoid [3] (setting [5]) it was 135.679%; with Colon cancer organoid [3] (setting [6]), 121.681%; in the assay on Colon cancer organoid [3] (setting [7]), 97.2871%.

For `Cc1c(Nc2ccc(S(=O)(=O)N3CCN(C)CC3)cc2F)nc2ccc(-c3cnn(C4CC4)c3)cn2c1=O`, the “Cell Viability” value is 106.525% with Colon cancer organoid [1] (setting [4]); 138.146% in the assay with Colon cancer organoid [1] (setting [5]); 47.9872% with Colon cancer organoid [1] (setting [6]); 100.536% in the assay on Colon cancer organoid [1] (setting [7]); 89.9801% in the assay with Colon cancer organoid [2] (setting [4]); 85.4908% in the assay on Colon cancer organoid [2] (setting [5]). Also, the “Cell Viability” value in the assay on Colon cancer organoid [2] (setting [6]) is recorded as 97.5645%; in the assay with Colon cancer organoid [2] (setting [7]), 92.3914%; in the assay on Colon cancer organoid [3] (setting [4]) it was 100.034%; with Colon cancer organoid [3] (setting [5]) it was 149.535%; in the assay on Colon cancer organoid [3] (setting [6]), 70.24%; with Colon cancer organoid [3] (setting [7]), 85.351%.

Take `COCCN1CCC(c2cc(CN(C)C(=O)c3cccc(Oc4ccccc4)c3)ccn2)CC1`: the “Cell Viability” value in the assay with Colon cancer organoid [1] (setting [4]) is on record as 91.2389%; in the assay with Colon cancer organoid [1] (setting [5]), 131.922%; in the assay with Colon cancer organoid [1] (setting [6]) it was 95.8918%; in the assay on Colon cancer organoid [1] (setting [7]) it was 124.805%; in the assay with Colon cancer organoid [2] (setting [4]), 94.0691%; with Colon cancer organoid [2] (setting [5]), 112.751%. Besides, the “Cell Viability” value came out at 102.019% in the assay on Colon cancer organoid [2] (setting [6]); 112.74% in the assay with Colon cancer organoid [2] (setting [7]); 94.1045% in the assay on Colon cancer organoid [3] (setting [4]); 115.605% with Colon cancer organoid [3] (setting [5]); 130.999% in the assay with Colon cancer organoid [3] (setting [6]); 103.56% in the assay with Colon cancer organoid [3] (setting [7]).

In the case of `CC(C)Oc1ccc(-c2c[nH]cc2CN(C)CCO)cc1`, the “Cell Viability” value in the assay with Colon cancer organoid [1] (setting [4]) was determined as 112.392%; in the assay on Colon cancer organoid [1] (setting [5]) it was 114.959%; with Colon cancer organoid [1] (setting [6]), 84.6605%; in the assay with Colon cancer organoid [1] (setting [7]), 116.102%; in the assay with Colon cancer organoid [2] (setting [4]), 119.367%; in the assay with Colon cancer organoid [2] (setting [5]), 107.888%. Further, the “Cell Viability” value in the assay with Colon cancer organoid [2] (setting [6]) turned out to be 90.5544%; in the assay with Colon cancer organoid [2] (setting [7]), 99.1586%; in the assay with Colon cancer organoid [3] (setting [4]), 114.035%; with Colon cancer organoid [3] (setting [5]) it was 121.653%; in the assay on Colon cancer organoid [3] (setting [6]), 114.538%; with Colon cancer organoid [3] (setting [7]), 100.305%.
